Data taken from patent publication US7049311B1, “Pyrrolbenzodiazepines” (Spirogen Limited, priority 1998, dated 2006).

Columns and labels:
Test in all cases: NCI human xenograft study
Format in all cases: in vivo, mice
[1] = test system: Ovcar-3 (human ovarian tumour)
Description: (§1) These are carried out on nucle athymic mice with a disabled immune system. The human tumour tissue to be tested is implanted in their flanks, and whilst the control mouse receives no treatment, the others are subjected to varying doses of the test compound, which is administered intraperitoneally. The results are expressed as the toxicity of the compound, the amount of tumour growth, and the inhibition of growth.
(§2) Athymic nude mice bearing MDA-MB-435 xenografts (human mammary tumour), Ovcar-3 (human ovarian tumour), UACC-62 (human melanoma) or OVCAR-5 (human ovarian tumour) were treated at doses of 0.67 (high), 0.45 (middle) and 0.3 (low) mg/kg/injection given once every 4th day for a total of 3 doses (6 mice per dose level with 20 controls).
(§3) UP2001 (80) was evaluated by measuring the toxicity of the drug and its ability to retard tumour growth.
(§4) Toxicity represents the number of mice which died as a result of treatment. % T/C represents the width of the tumours in the “test” mice (T) (as measured with calipers) compared to control untreated mice (C) and presented as a percentage. % Growth Delay represents the increase in the amount of time taken for the tumors to reach an arbitrary size of 250 mg.

[2] = test system: OVCAR-5 (human ovarian tumour)
Description: as §1, §2, §3, §4

[3] = test system: MDA-MB-435 xenografts (human mammary tumour)
Description: as §1, §2, §3, §4

[4] = test system: UACC-62 (human melanoma)
Description: as §1, §2, §3, §4

[5] = 0.3 mg/kg/injection once every 4th day, 3 doses
[6] = 0.3 mg/kg/injection once every 4th day, 3 doses, mice which died as a result of treatment
[7] = 0.3 mg/kg/injection, time for tumours to reach 250 mg
[8] = 0.45 mg/kg/injection once every 4th day, 3 doses
[9] = 0.45 mg/kg/injection once every 4th day, 3 doses, mice which died as a result of treatment
[10] = 0.45 mg/kg/injection, time for tumours to reach 250 mg
[11] = 0.67 mg/kg/injection once every 4th day, 3 doses
[12] = 0.67 mg/kg/injection once every 4th day, 3 doses, mice which died as a result of treatment
[13] = 0.67 mg/kg/injection, time for tumours to reach 250 mg
[14] = MDA-MB-435 xenografts, dose not given

With `C=C1C[C@H]2C=Nc3cc(OCCCOc4cc5c(cc4OC)C(=O)N4CC(=C)C[C@H]4C=N5)c(OC)cc3C(=O)N2C1` [UP2001 (80)] the “% T/C Low” value [1, 5] was 46%, the “Toxicity Low” value [1, 6] was 0/6 and the “% Growth Delay Low” value [1, 7] was 9%. For the same compound, the “% T/C Mid” value [1, 8] was 20%, the “Toxicity Mid” value [1, 9] was 0/6 and the “% Growth Delay Mid” value [1, 10] was 73%. For the same compound, the “% T/C High” value [1, 11] was 7%, the “Toxicity High” value [1, 12] was 0/6 and the “% Growth Delay High” value [1, 13] was 73%. The “% T/C Low” value ([2]; OVCAR-5, 0.3 mg/kg/injection once every 4th day, 3 doses) was 38%, the “Toxicity Low” value ([2]; OVCAR-5, 0.3 mg/kg/injection once every 4th day, 3 doses, mice which died as a result of treatment) was 0/6 and the “% Growth Delay Low” value ([2]; OVCAR-5, 0.3 mg/kg/injection, time for tumours to reach 250 mg) was 32%. For the same compound, the “% T/C Mid” value ([2]; OVCAR-5, 0.45 mg/kg/injection once every 4th day, 3 doses) was 45%, the “Toxicity Mid” value ([2]; OVCAR-5, 0.45 mg/kg/injection once every 4th day, 3 doses, mice which died as a result of treatment) was 0/6 and the “% Growth Delay Mid” value ([2]; OVCAR-5, 0.45 mg/kg/injection, time for tumours to reach 250 mg) was 28%. The “% T/C High” value ([2]; OVCAR-5, 0.67 mg/kg/injection once every 4th day, 3 doses) was 52%, the “Toxicity High” value ([2]; OVCAR-5, 0.67 mg/kg/injection once every 4th day, 3 doses, mice which died as a result of treatment) was 0 and the “% Growth Delay High” value ([2]; OVCAR-5, 0.67 mg/kg/injection, time for tumours to reach 250 mg) was 16%. For the same compound, the tumour size reduction ([2]; OVCAR-5 xenografts, dose not given) was “approximately 50%”, the “% T/C Low” value ([3]; MDA-MB-435, 0.3 mg/kg/injection once every 4th day, 3 doses) was 3% and the “Toxicity Low” value ([3]; MDA-MB-435, 0.3 mg/kg/injection once every 4th day, 3 doses, mice which died as a result of treatment) was 2/6. For the same compound, the “% Growth Delay Low” value ([3]; MDA-MB-435, 0.3 mg/kg/injection, time for tumours to reach 250 mg) was 41%, the “% T/C Mid” value ([3]; MDA-MB-435, 0.45 mg/kg/injection once every 4th day, 3 doses) was 3% and the “Toxicity Mid” value ([3]; MDA-MB-435, 0.45 mg/kg/injection once every 4th day, 3 doses, mice which died as a result of treatment) was 1/6. The “% Growth Delay Mid” value ([3]; MDA-MB-435, 0.45 mg/kg/injection, time for tumours to reach 250 mg) was 41%, the “% T/C High” value ([3]; MDA-MB-435, 0.67 mg/kg/injection once every 4th day, 3 doses) was “toxic” and the “Toxicity High” value ([3]; MDA-MB-435, 0.67 mg/kg/injection once every 4th day, 3 doses, mice which died as a result of treatment) was 3/6. For the same compound, the “% Growth Delay High” value ([3]; MDA-MB-435, 0.67 mg/kg/injection, time for tumours to reach 250 mg) was 41%, the “delay in the time taken to reach tumour mass of 250 mg” value [3, 14] was 41% and the “tumour growth in treated mice as % of the tumour growth in the control population” value [3, 14] was 3%. The “% T/C Low” value [4, 5] was 67%, the “Toxicity Low” value [4, 6] was 0/6 and the “% Growth Delay Low” value [4, 7] was 43%. The “% T/C Mid” value [4, 8] was 28%, the “Toxicity Mid” value [4, 9] was 0/6 and the “% Growth Delay Mid” value [4, 10] was 43%. The “% T/C High” value [4, 11] was 22%, the “Toxicity High” value [4, 12] was 0/6 and the “% Growth Delay High” value [4, 13] was 43%.
